The source of these data is patent US20260091026A1, “METHODS OF TREATING INFLAMMATORY DISEASES” (INTERLINE THERAPEUTICS, INC., priority 2023, published 2026).

Like-named read-outs stand apart in the source and are kept apart here.

Assay [1] deals with T1, RIPK2 (KD)/XIAP (BIR2) (Homo sapiens, UniProt O43353).
T1 construct: made in house; host or cells: baculovirus-infected Sf9 cells
In words: RIPK2-XIAP binding competition PPI assay (TR-FRET). To be noted: for Emax: read-out: PPI Amax; for IC50: GST-RIPK2 / His-XIAP (BIR2)-avi, 120 min at 23° C. The gist of the method:
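TR-FRET competition between GST-RIPK2 (aa 1-310, 1 nM) and His-XIAP BIR2-avi (aa 152-231, 25 nM), both Sf9-expressed, detected with anti-His-XL665 and anti-GST-Tb in Tris pH 7.5 buffer with MgCl2, DTT and vanadate. Incubation was 120 min at 23 °C; the 665/520 nm ratio was normalized to no inhibitor (0%) and 50 nM GSK583 (−100%).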

The subject of assay [2] is THP1-Dual cells, NF-κB pathway (SEAP). The experiment in a line: THP-1 Dual cell SEAP assay (L18-MDP stimulated). Conditions: 10 ng/mL L18-MDP, 20-24 h, SEAP readout, read-out: IFNγ THP1 IC50. The assay is classed as cell-based. The method, boiled down: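 About 25,000 THP1-Dual cells per well were preincubated 30 min with serially diluted compound, then stimulated overnight (20-24 h, 37 °C) with 10 ng/mL L18-MDP (final). NF-κB-driven SEAP in supernatant was read with QUANTI-Blue at OD 620-655 nm after 2 h; % inhibition versus DMSO/L18-MDP wells was fitted by non-linear regression to give IC50.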

[3] abbreviates: 50 nM of GSK583 = -100% activity.

T1 sequence (O43353 1-310): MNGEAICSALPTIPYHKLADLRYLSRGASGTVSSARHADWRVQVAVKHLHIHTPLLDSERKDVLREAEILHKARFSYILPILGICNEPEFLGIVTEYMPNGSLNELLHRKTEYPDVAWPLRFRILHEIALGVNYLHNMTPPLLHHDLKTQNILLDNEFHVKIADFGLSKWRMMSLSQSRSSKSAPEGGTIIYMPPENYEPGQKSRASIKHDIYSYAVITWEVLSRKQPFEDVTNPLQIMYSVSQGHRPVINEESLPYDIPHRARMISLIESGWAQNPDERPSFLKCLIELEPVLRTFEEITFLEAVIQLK

For `COc1cc2ncc(-c3cc(C(=O)NCc4cccn5ccnc45)n(C)n3)n2cc1S(=O)(=O)C(C)(C)C` [Example 21, 3-(6-(tert-butylsulfonyl)-7-methoxyimidazo[1,2-a]pyridin-3-yl)-N-(imidazo[1,2-a]pyridin-8-ylmethyl)-1-methyl-1H-pyrazole-5-carboxamide], the Emax in assay [1] (setting [3]) was at least 80%. In addition, the IC50 in assay [1] was 100 to 1000 nM; in assay [2] (Homo sapiens), above 2500 nM.

As for `COc1cc2ncc(-c3cc(C(=O)NCc4c5ccccc5nn4C)n(C)n3)n2cc1S(=O)(=O)C(C)(C)C` [Example 16, 3-(6-(tert-butylsulfonyl)-7-methoxyimidazo[1,2-a]pyridin-3-yl)-1-methyl-N-((2-methyl-2H-indazol-3-yl)methyl)-1H-pyrazole-5-carboxamide], in assay [1] (setting [3]), the Emax was in the range of 55 to 80%. In addition, the IC50 in assay [1] is above 1000 nM; in assay [2] (Homo sapiens), above 2500 nM.

For the compound `COc1cc2ncc(-c3cc(C(=O)N[C@@H]4C[C@H]4c4ccccc4)n(C)n3)n2cc1S(=O)(=O)C(C)(C)C` (single isomer, unassigned) [Example 34, trans-(1S,2R) or (1R,2S) 3-(6-(tert-butylsulfonyl)-7-methoxyimidazo[1,2-a]pyridin-3-yl)-1-methyl-N-(2-phenylcyclopropyl)-1H-pyrazole-5-carboxamide], the “PPI Amax” value in assay [1] (setting [3]) is recorded as “A (Amax of ≥80%)”. Moreover, the IC50 in assay [1] is above 1000 nM; in assay [2], above 2500 nM.

With `COc1cc2ncc(-c3cc(C(=O)N[C@H](C)c4ccccn4)[nH]n3)n2cc1S(=O)(=O)C(C)(C)C` [Example 146, (R)-3-(6-(tert-butylsulfonyl)-7-methoxyimidazo[1,2-a]pyridin-3-yl)-N-(1-(pyridin-2-yl)ethyl)-1H-pyrazole-5-carboxamide], in assay [1] (setting [3]), the Emax was at least 80%. For the same compound, the IC50 in assay [1] lay in the range of 10 to 100 nM; in assay [2] (Homo sapiens), 100 to 500 nM.

As for `COc1cc2ncc(-c3cc(C(=O)NCC4CC4)n(C)n3)n2cc1S(=O)(=O)C(C)(C)C` [Example 38, 3-(6-(tert-butylsulfonyl)-7-methoxyimidazo[1,2-a]pyridin-3-yl)-N-(cyclopropylmethyl)-1-methyl-1H-pyrazole-5-carboxamide], in assay [1] (setting [3]), the Emax was in the range of 30 to 55%. Also, the IC50 in assay [1] was above 1000 nM; in assay [2] (Homo sapiens), above 2500 nM.

Consider `C[C@H](CO)COc1cc2ncc(-c3cc(NC(=O)Cc4ccccc4Cl)n(C)n3)n2cc1S(=O)(=O)C(C)(C)C` [Example 187, (R)-N-(3-(6-(tert-butylsulfonyl)-7-(3-hydroxy-2-methylpropoxy)imidazo [1,2-a]pyridin-3-yl)-1-methyl-1H-pyrazol-5-yl)-2-(2-chlorophenyl)acetamide], for which the Emax in assay [1] (setting [3]) was at least 80%. Moreover, the IC50 in assay [1] is below 10 nM; in assay [2] (Homo sapiens), 100 to 500 nM.

`COc1cc2ncc(-c3cc(C(=O)NCc4cnccn4)n(C)n3)n2cc1S(=O)(=O)C(C)(C)C` [Example 67, 3-(6-(tert-butylsulfonyl)-7-methoxyimidazo[1,2-a]pyridin-3-yl)-1-methyl-N-(pyrazin-2-ylmethyl)-1H-pyrazole-5-carboxamide]: the Emax in assay [1] (setting [3]) lay in the range of 55 to 80%. Further, the IC50 in assay [1] is above 1000 nM; in assay [2] (Homo sapiens), above 2500 nM.

As to `COc1ccccc1CNC(=O)c1cc(-c2cnc3cc(OC)c(S(=O)(=O)C(C)(C)C)cn23)nn1C` [Example 73, 3-(6-(tert-butylsulfonyl)-7-methoxyimidazo[1,2-a]pyridin-3-yl)-N-(2-methoxybenzyl)-1-methyl-1H-pyrazole-5-carboxamide], the Emax in assay [1] (setting [3]) is at least 80%. Besides, the IC50 in assay [1] lay in the range of 10 to 100 nM; in assay [2] (Homo sapiens), 500 to 2500 nM.

In the case of `CCn1nc(-c2cnn3cc(OCCO)c(S(=O)(=O)C(C)(C)C)cc23)cc1C(=O)N[C@H](C)c1ncccn1` [Example 117, (R)-3-(5-(tert-butylsulfonyl)-6-(2-hydroxyethoxy)pyrazolo[1,5-a]pyridin-3-yl)-1-ethyl-N-(1-(pyrimidin-2-yl)ethyl)-1H-pyrazole-5-carboxamide], the Emax in assay [1] (setting [3]) is at least 80%. The half-maximal inhibitory concentration (IC50) in assay [1] was 10 to 100 nM; in assay [2] (Homo sapiens), below 100 nM.

Regarding `C[C@@H](NC(=O)c1cc(-c2cnc3cc(OCCO)c(S(=O)(=O)C(C)(C)C)cn23)nn1C)c1ncccn1` [Example 108, (R)-3-(6-(tert-butylsulfonyl)-7-(2-hydroxyethoxy)imidazo[1,2-a]pyridin-3-yl)-1-methyl-N-(1-(pyrimidin-2-yl)ethyl)-1H-pyrazole-5-carboxamide], the Emax in assay [1] (setting [3]) is at least 80%. In addition, the IC50 in assay [1] lay in the range of 10 to 100 nM; in assay [2] (Homo sapiens) it was 100 to 500 nM.

With `COc1cc2ncc(-c3cc(NC(=O)OCc4ccccc4)n(C)n3)n2cc1S(=O)(=O)C(C)(C)C` [Example 149], in assay [1] (setting [3]), the Emax was at least 80%. Also, the concentration for half-maximal inhibition (IC50) in assay [1] lay within 10 to 100 nM; in assay [2] (Homo sapiens), 100 to 500 nM.

Take `C[C@@H](NC(=O)c1cc(-c2cnc3cc(OCCO)c(S(=O)(=O)C(C)(C)C)cn23)nn1C1CC1)c1ncccn1` [Example 136, (R)-3-(6-(tert-butylsulfonyl)-7-(2-hydroxyethoxy)imidazo[1,2-a]pyridin-3-yl)-1-cyclopropyl-N-(1-(pyrimidin-2-yl)ethyl)-1H-pyrazole-5-carboxamide]: the Emax in assay [1] (setting [3]) was at least 80%. The IC50 in assay [1] was below 10 nM; in assay [2] (Homo sapiens), below 100 nM.

Consider `COc1cc2ncc(-c3cc(C(=O)NCC4CCCC4)n(C)n3)n2cc1S(=O)(=O)C(C)(C)C` [Example 40, 3-(6-(tert-butylsulfonyl)-7-methoxyimidazo[1,2-a]pyridin-3-yl)-N-(cyclopentylmethyl)-1-methyl-1H-pyrazole-5-carboxamide], for which the Emax in assay [1] (setting [3]) is at least 80%. In addition, the IC50 in assay [1] is 100 to 1000 nM; in assay [2] (Homo sapiens), above 2500 nM.

`CCn1nc(-c2cnc3cc(OCCO)c(S(=O)(=O)C(C)(C)C)cn23)cc1C(=O)N[C@@H](C)c1cc(C)ccn1` [Example 135, (S)-3-(6-(tert-butylsulfonyl)-7-(2-hydroxyethoxy)imidazo[1,2-a]pyridin-3-yl)-1-ethyl-N-(1-(4-methylpyridin-2-yl)ethyl)-1H-pyrazole-5-carboxamide]: the Emax in assay [1] (setting [3]) was at least 80%. Further, the IC50 in assay [1] was above 1000 nM; in assay [2] (Homo sapiens) it was above 2500 nM.

In the case of `COc1cc2ncc(-c3cc(C(=O)NCc4cc5ccccn5n4)n(C)n3)n2cc1S(=O)(=O)C(C)(C)C` [Example 23, 3-(6-(tert-butylsulfonyl)-7-methoxyimidazo[1,2-a]pyridin-3-yl)-1-methyl-N-(pyrazolo[1,5-a]pyridin-2-ylmethyl)-1H-pyrazole-5-carboxamide], in assay [1] (setting [3]), the Emax was at most 30%. The figures for the IC50 in assay [1] and in assay [2] (Homo sapiens) were above 1000 nM and 500 to 2500 nM, respectively.

On to `CCn1nc(-c2cnc3cc(OCCO)c(S(=O)(=O)C(C)(C)C)cn23)cc1C(=O)N[C@@H](C)c1ncc(C)s1` [Example 131, (S)-3-(6-(tert-butylsulfonyl)-7-(2-hydroxyethoxy)imidazo[1,2-a]pyridin-3-yl)-1-ethyl-N-(1-(5-methylthiazol-2-yl)ethyl)-1H-pyrazole-5-carboxamide], for which the Emax in assay [1] (setting [3]) was at least 80%. Also, the IC50 lay within 10 to 100 nM in assay [1] and 500 to 2500 nM in assay [2] (Homo sapiens).

With `CCn1nc(-c2cnc3cc(OCCO)c(S(=O)(=O)C(C)(C)C)cn23)cc1C(=O)N[C@H](C)c1cc(C)ccn1` [Example 134, (R)-3-(6-(tert-butylsulfonyl)-7-(2-hydroxyethoxy)imidazo[1,2-a]pyridin-3-yl)-1-ethyl-N-(1-(4-methylpyridin-2-yl)ethyl)-1H-pyrazole-5-carboxamide], the Emax in assay [1] (setting [3]) was at least 80%. Moreover, the IC50 in assay [1] lay in the range of 10 to 100 nM; in assay [2] (Homo sapiens) it was 100 to 500 nM.

As to `COc1cc2ncc(-c3cc(C(=O)N[C@H](C)c4ccccn4)n(CC(F)(F)CO)n3)n2cc1S(=O)(=O)C(C)(C)C` [Example 106, (R)-3-(6-(tert-butylsulfonyl)-7-methoxyimidazo[1,2-a]pyridin-3-yl)-1-(2,2-difluoro-3-hydroxypropyl)-N-(1-(pyridin-2-yl)ethyl)-1H-pyrazole-5-carboxamide], the Emax in assay [1] (setting [3]) was at least 80%. In addition, the IC50 was in the range of 10 to 100 nM in assay [1] and 100 to 500 nM in assay [2] (Homo sapiens).

As for `COc1cc2ncc(-c3cc(C(=O)N[C@H](C)c4ccc(F)cc4)n(C)n3)n2cc1S(=O)(=O)C(C)(C)C` [Example 12, (R)-3-(6-(tert-butylsulfonyl)-7-methoxyimidazo[1,2-a]pyridin-3-yl)-N-(1-(4-fluorophenyl)ethyl)-1-methyl-1H-pyrazole-5-carboxamide], the Emax in assay [1] (setting [3]) was at least 80%. Also, the IC50 in assay [1] is 100 to 1000 nM; in assay [2] (Homo sapiens) it was 500 to 2500 nM.

With `COc1cn2ncc(-c3cc(C(=O)N[C@H](C)c4ccccn4)n(C)n3)c2cc1C1(F)CCN(C)CC1` [Example 58, (R)-3-(5-(4-fluoro-1-methylpiperidin-4-yl)-6-methoxypyrazolo[1,5-a]pyridin-3-yl)-1-methyl-N-(1-(pyridin-2-yl)ethyl)-1H-pyrazole-5-carboxamide], the Emax in assay [1] (setting [3]) was at least 80%. Moreover, the figures for the IC50 in assay [1] and in assay [2] (Homo sapiens) were 100 to 1000 nM and 500 to 2500 nM, respectively.

In the case of `COc1cc2ncc(-c3cc(C(=O)N[C@@H](C)c4cn(C)cn4)n(C)n3)n2cc1S(=O)(=O)C(C)(C)C` [Example 57, (S)-3-(6-(tert-butylsulfonyl)-7-methoxyimidazo[1,2-a]pyridin-3-yl)-1-methyl-N-(1-(1-methyl-1H-imidazol-4-yl)ethyl)-1H-pyrazole-5-carboxamide], the Emax in assay [1] (setting [3]) was at least 80%. For the same compound, the IC50 is above 1000 nM in assay [1] and above 2500 nM in assay [2] (Homo sapiens).
